Results from patent US7872047B2, “Esters of long-chain alcohols and preparation thereof” (Eastman Chemical Company, priority 2008, dated 2011).

Experiment: Oxidative Stability Index (OSI) accelerated oxidation test in simple skin lipid model
Conditions: for onset of lipid oxidation over the untreated control (antioxidant effect): 1% idebenone, 1% or 2% idebenone linoleate in SLMM, p<0.01; for Avg. OSI (stdev) Hours at 80° C.: air bubbled, induction period, triplicate; for Calculated OSI Hours at 35° C.: estimated for 35° C. (skin surface temperature) with instrument software
From the text: Oxidation of skin lipids can contribute to an aged appearance and other undesirable effects on skin condition. A simple skin lipid model (based on fatty acids found in skin) can be used to evaluate and predict the topical effectiveness of different compounds to inhibit skin lipid oxidation and improve the condition of skin (Narayanan, S.: Hunerbein, A.: Getie, M.; Jackel, A.; Neubert, R. H. Scavenging properties of metronidazole on free oxygen radicals in a skin lipid model system. J Pharm Pharmacol. 2007 August;59(8):1125-30).
Lipid oxidation can be measured by a number of analytical methods. An accelerated oxidation test such as the Oxidative Stability Index (OSI) is accepted as a method for determining both oxidative stability of lipids as well as antioxidant effectiveness (Bartee, S. D.; Kim, H. J.; Min, D. B. Effects of antioxidants on the oxidative stability of oils containing arachidonic, docosapentaaenoic and docosahexaenoic acids. J Amer Oil Chem Soc 2007 84: 363-68.; Official methods and recommended practices of the AOCS, 5th Edition, AOCS 1998).
In this example, the OSI method was used to assess the antioxidant activity of idebenone esters by measuring their ability to inhibit lipid oxidation in a mixture of fatty acids that are present in skin lipids. The composition of the simple skin lipid model tested is 74% linoleic acid; 21% oleic acid; 4% linolenic acid. The simple skin lipid model includes a large proportion of polyunsaturated and unsaturated fatty acids, which are prone to oxidation.
The untreated sample was composed of the simple skin lipid model (fatty acid mixture). The treated samples were prepared by dissolving the test materials in the simple skin lipid model at 1 or 2 wt % at room temperature. The treated and untreated lipid matrices were oxidized by heating the test solutions to 80° C. and bubbling air through the samples. The OSI (induction period in hours) was determined using an Oxidative Stability Instrument (Omnion, Inc. Rockville Md.) and the method of Bartee et al., 2007. Untreated and treated samples were tested in triplicate, and the average and standard deviation are included in Table 1. The OSI (induction period in hours) was also estimated for oxidation at 35° C. (simulating skin surface temperature) using the software supplied with the instrument.

Row | SMILES | onset of lipid oxidation over the untreated control (antioxidant effect) | Avg. OSI (stdev) Hours at 80° C. (1 wt % test material in SLMM) | Calculated OSI Hours at 35° C. (1 wt % test material in SLMM) [h] | Avg. OSI (stdev) Hours at 80° C. (2 wt % test material in SLMM) | Calculated OSI Hours at 35° C. (2 wt % test material in SLMM) [h]
1 | CCCCC/C=C\C/C=C\CCCCCCCC(=O)OCCCCCCCCCCC1=C(C)C(=O)C(OC)=C(OC)C1=O [idebenone linoleate, Idebenone Linoleate] | significantly delayed the onset of lipid oxidation | 2.50 (0.54) Hours | 56.2 | 3.22 (0.67) Hours | 72.4
2 | COC1=C(OC)C(=O)C(CCCCCCCCCCO)=C(C)C1=O [idebenone, Idebenone, reference compound] | significantly delayed the onset of lipid oxidation | 2.77 (0.14) Hours | 62.3 |  | 
